Tests used:
CDK2/E = CDK2/E (Homo sapiens, UniProt P24941); assay: CDK2/E in vitro kinase assay; type: biochemical
Description: (§1) The compounds of the invention above were investigated for their ability to inhibit the enzymatic activity of various protein kinases. This was achieved by measurement of incorporation of radioactive phosphate from ATP into appropriate polypeptide substrates. Recombinant protein kinases and kinase complexes were produced or obtained commercially. Assays were performed using 96-well plates and appropriate assay buffers (typically 25 mM β-glycerophosphate, 20 mM MOPS, 5 mM EGTA, 1 mM DTT, 1 mM […], pH 7.4), into which were added 2-4 μg of active enzyme with appropriate substrates. The reactions were initiated by addition of Mg/ATP mix (15 mM MgCl2+100 μM ATP with 30-50 kBq per well of [γ-^32P]-ATP) and mixtures incubated as required at 30° C. Reactions were stopped on ice, followed by filtration through p81 filterplates or GF/C filterplates (Whatman Polyfiltronics, Kent, UK). After washing 3 times with 75 mM aq orthophosphoric acid, plates were dried, scintillant added and incorporated radioactivity measured in a scintillation counter (TopCount, Packard Instruments, Pangbourne, Berks, UK). Compounds for kinase assay were made up as 10 mM stocks in DMSO and diluted into 10% DMSO in assay buffer. Data was analysed using curve-fitting software (GraphPad Prism version 3.00 for Windows, GraphPad Software, San Diego Calif. USA) to determine IC50 values (concentration of test compound which inhibits kinase activity by 50%).

Human aurora kinase A = molecular target: T1, Human aurora kinase A (Homo sapiens, UniProt O14965); assay: Aurora-A (human) kinase assay; type: biochemical; details: values marked *: Human aurora kinase A; read-out: Aur A IC50 (*Human aurora kinase A)
T1 construct: purchased Upstate, Dundee, UK
T1 sequence (O14965 1-403): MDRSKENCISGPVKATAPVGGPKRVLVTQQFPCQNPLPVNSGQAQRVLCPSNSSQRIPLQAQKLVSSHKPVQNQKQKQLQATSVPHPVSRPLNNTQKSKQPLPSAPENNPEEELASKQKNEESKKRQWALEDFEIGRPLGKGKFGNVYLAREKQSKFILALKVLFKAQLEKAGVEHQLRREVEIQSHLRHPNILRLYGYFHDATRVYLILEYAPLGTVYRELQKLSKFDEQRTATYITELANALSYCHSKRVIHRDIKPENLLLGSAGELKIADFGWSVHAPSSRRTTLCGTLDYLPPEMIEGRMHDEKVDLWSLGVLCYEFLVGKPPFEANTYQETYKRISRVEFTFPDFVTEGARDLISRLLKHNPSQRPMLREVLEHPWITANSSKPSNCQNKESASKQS
Description: This was achieved by measurement of incorporation of radioactive phosphate from ATP into Kemptide substrate (LRRASLG), upon phosphorylation by commercially obtained aurora-A (human, Upstate, Dundee, UK). Assays were performed using 96-well plates and appropriate assay buffers (20 mM Tris, 25 mM β-glycerophosphate, 5 mM EGTA, 1 mM DTT, 1 mM sodium vanadate, pH 7.5), into which were added 2-5 ng of active enzyme with 500 μM substrate (Kemptide). The reactions were initiated by addition of MgATP mix (15 mM MgCl2+100 μM ATP with 15-25 kBq per well of [γ-^32P]-ATP) and mixtures incubated for 30 min at 30° C. Reactions were stopped by addition of an equal volume of 75 mM aq orthophosphoric acid, followed by filtration through p81 filterplates (Whatman Polyfiltronics, Kent, UK). After washing 4 times with 75 mM aq orthophosphoric acid, plates were dried, scintillant added and incorporated radioactivity measured in a scintillation counter (TopCount, Packard Instruments, Pangbourne, Berks, UK). Compounds for kinase assay were made up as 10 mM stocks in DMSO and diluted into 10% DMSO in assay buffer. Data was analysed using curve-fitting software (XLfit version 4.0.2, IDBS, Guildford, Surrey, UK) to determine IC50 values (concentration of test compound which inhibits kinase activity by 50%).

DM Aur A (Dm AK-A) = DM Aur A (Dm AK-A) (Drosophila melanogaster, UniProt Q9VGF9); assay: Dm aurora A kinase assay (DM Aur A / Dm AK-A); type: biochemical; details: for Ki: in vitro kinase assay; for IC50: values without asterisk (DM aurora A)
Chain of DM Aur A (Dm AK-A) (Q9VGF9 entry or part of it): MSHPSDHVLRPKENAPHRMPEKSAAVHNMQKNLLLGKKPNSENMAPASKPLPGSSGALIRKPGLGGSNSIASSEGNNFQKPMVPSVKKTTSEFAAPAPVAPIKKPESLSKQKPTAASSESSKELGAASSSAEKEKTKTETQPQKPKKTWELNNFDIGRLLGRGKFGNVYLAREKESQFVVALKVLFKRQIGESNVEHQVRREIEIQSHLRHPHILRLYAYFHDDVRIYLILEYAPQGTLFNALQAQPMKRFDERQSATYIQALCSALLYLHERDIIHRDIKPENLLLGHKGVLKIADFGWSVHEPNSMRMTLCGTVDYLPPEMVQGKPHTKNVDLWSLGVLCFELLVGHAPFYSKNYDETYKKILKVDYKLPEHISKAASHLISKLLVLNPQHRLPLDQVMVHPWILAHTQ
Description: as §1

GSK3 (GSK-3β) = GSK3 (GSK-3β) (Oryctolagus cuniculus, UniProt A0A5F9DUX8); assay: GSK-3 kinase assay; type: biochemical, rabbit; details: in vitro kinase assay
Chain of GSK3 (GSK-3β) (A0A5F9DUX8 entry or part of it): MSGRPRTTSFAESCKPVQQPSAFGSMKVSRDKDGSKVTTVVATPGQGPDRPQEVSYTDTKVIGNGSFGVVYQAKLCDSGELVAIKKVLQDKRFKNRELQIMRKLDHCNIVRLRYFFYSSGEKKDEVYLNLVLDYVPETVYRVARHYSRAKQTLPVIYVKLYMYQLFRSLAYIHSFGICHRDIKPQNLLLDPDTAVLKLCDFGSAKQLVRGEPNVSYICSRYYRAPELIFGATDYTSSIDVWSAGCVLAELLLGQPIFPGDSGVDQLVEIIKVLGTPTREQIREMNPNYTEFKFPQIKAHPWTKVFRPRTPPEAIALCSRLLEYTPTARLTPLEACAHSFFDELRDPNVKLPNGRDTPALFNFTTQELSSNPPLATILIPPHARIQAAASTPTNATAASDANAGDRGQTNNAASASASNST
Description: GSK-3 was obtained from New England Biolabs (UK) Ltd., Hitchin, Herts. The recombinant enzyme was isolated from a strain of E. coli that carries a clone expressing GSK-3β derived from a rabbit skeletal muscle cDNA library [Wang, Q. M.; Fiol, C. J.; DePaoli-Roach, A. A.; Roach, P. J. J. Biol. Chem., 1994, 269, 14566]. Inhibition of GSK-3 function was assessed by measurement of phosphorylation of CREB phosphopeptide KRREILSRRPphosphoSYR in the presence of test compounds. Using a 96-well assay format, GSK3 (7.5 U) was incubated for 30 min at 30° C. in a total volume of 25 μL in 20 mM MOPS pH 7.2, 25 mM β-glycerophosphate, 5 mM EGTA, 1 mM DTT, 1 mM […], 40 μM CREB peptide, 15 mM MgCl2 and 100 μM ATP (containing 0.25 μCi [γ-^32P]-ATP) in the presence of varying concentrations of test compound. The samples were transferred to 96-well p81 filter plates (Whatman Polyfiltronics, Kent, UK), and the plates were washed 4 times with 200 μL/well of 75 mM aq orthophosphoric acid. Scintillation liquid (50 μL) was added to each well, and incorporated radioactivity for each sample was determined using a scintillation counter (TopCount, Packard Instruments, Pangboume, Berks, UK).

Structure (SMILES)	Ki (CDK2/E) [nM]	IC50 (Human aurora kinase A) [nM]	Ki (DM Aur A (Dm AK-A)) [nM]	IC50 (DM Aur A (Dm AK-A)) [nM]	Ki (GSK3 (GSK-3β)) [nM]	melting point [°C]
COc1cc(Nc2nccc(-c3c(C)c[nH]c3C)n2)cc(OC)c1OC [Compound 56]	> 10000	–	–	–	–	–
COc1cc(Nc2nccc(-c3c(C)cn(C)c3C)n2)cc(OC)c1OC [Compound 57]	> 10000	–	–	–	–	–
Cc1c[nH]c(C)c1-c1ccnc(Nc2ccc(N3CCOCC3)cc2)n1 [Compound 4]	1810	–	8	72	–	–
Cc1c(-c2ccnc(Nc3ccc(N(C)C)cc3)n2)c(C)n(C)c1C#N [Compound 20]	538	–	–	–	11	–
COc1ccc(C)c(Nc2nccc(-c3c(C)[nH]c(C#N)c3C)n2)c1 [Compound 29]	> 10000	–	2520	6470	731	–
COc1ccc(Nc2nccc(-c3c(C)c[nH]c3C)n2)cn1 [Compound 26]	861	–	–	–	167	–
Cc1ccc([N+](=O)[O-])cc1Nc1nccc(-c2c(C)[nH]c(C#N)c2C)n1 [Compound 27]	> 10000	–	> 10000	≥ 10000	375	–
Cc1c[nH]c(C)c1-c1ccnc(Nc2ccc(N3CCOCC3)c(Cl)c2)n1 [Compound 44]	–	261	–	–	–	–
Cc1[nH]cc(-c2ccccc2)c1-c1ccnc(Nc2ccc(O)cc2)n1 [Compound 15]	–	–	602	1540	133	194.1 to 195.6
COCCOC(=O)c1[nH]c(C)c(-c2ccnc(Nc3ccc(N4CCOCC4)cc3)n2)c1-c1ccccc1 [Compound 37]	–	–	333	853	–	–
CCOC(=O)c1[nH]c(C)c(-c2ccnc(Nc3ccc(N4CCOCC4)cc3)n2)c1C [Compound 43]	–	–	103	265	–	–
Cc1c[nH]c(C)c1-c1ccnc(Nc2ccc(C#N)cc2)n1 [Compound 1]	–	–	> 10000	≥ 10000	601	–
CCOC(=O)c1[nH]c(C)c(-c2ccnc(Nc3ccc(C(F)(F)F)cc3)n2)c1-c1ccccc1 [Compound 10]	–	–	> 10000	≥ 10000	–	227 to 230
Cc1[nH]c(C#N)c(C)c1-c1ccnc(Nc2ccc(N3CCN(Cc4ccccc4)CC3)cc2)n1 [Compound 40]	–	–	108	276	–	–
CCOC(=O)c1[nH]c(C)c(-c2ccnc(Nc3cc(OC)c(OC)c(OC)c3)n2)c1C [Compound 58]	4700	–	–	–	–	–
Cc1[nH]c(C#N)c(C)c1-c1ccnc(Nc2cccc(S(=O)(=O)NC(C)C)c2)n1 [Compound 34]	876	–	1300	3320	5	–
CCOC(=O)c1[nH]c(C)c(-c2ccnc(Nc3ccc(N4CCOCC4)c(Cl)c3)n2)c1C [Compound 46]	–	3030	–	–	–	–
Cc1cc(Nc2nccc(-c3c(C)[nH]c(C#N)c3C)n2)cnc1Cl [Compound 33]	–	–	666	1700	7	–
CC(=O)N1CCN(c2ccc(Nc3nccc(-c4c(C)[nH]c(C#N)c4C)n3)cn2)CC1 [Compound 38]	310	–	69	177	–	–
Cc1c[nH]c(C)c1-c1ccnc(Nc2cc(Cl)c(N3CCOCC3)c(Cl)c2)n1 [Compound 45]	–	> 10000	–	–	–	–
Cc1c[nH]c(C)c1-c1ccnc(Nc2cccc(C#N)c2)n1 [Compound 2]	–	–	> 10000	≥ 10000	3690	–
CNc1ccc(Nc2nccc(-c3c(C)[nH]c(C#N)c3C)n2)cc1C(F)(F)F [Compound 31]	119	–	49	125	53	–

The remaining lines, values ahead:

Ki (CDK2/E) [nM]	IC50 (Human aurora kinase A) [nM]	Ki (DM Aur A (Dm AK-A)) [nM]	IC50 (DM Aur A (Dm AK-A)) [nM]	Ki (GSK3 (GSK-3β)) [nM]	melting point [°C]	Structure (SMILES)
–	> 10000	–	–	–	–	CCOC(=O)c1[nH]c(C)c(-c2ccnc(Nc3cc(Cl)c(N4CCOCC4)c(Cl)c3)n2)c1C [Compound 47]
759	168	–	–	–	–	COc1cc(Nc2nccc(-c3c(C)[nH]c(C#N)c3C)n2)cc(OC)c1OC [Compound 52]
> 10000	91	–	–	–	–	CCOC(=O)c1[nH]c(C)c(-c2ccnc(Nc3ccc(N4CCOCC4)c(OC)c3)n2)c1C [Compound 54]
308	–	19	48	–	–	CC(=O)N1CCN(c2ccc(Nc3nccc(-c4c(C)[nH]c(C#N)c4C)n3)cc2)CC1 [Compound 41]
–	–	335	859	208	201 to 203	Cc1[nH]cc(-c2ccccc2)c1-c1ccnc(Nc2cccc([N+](=O)[O-])c2)n1 [Compound 13]
–	222	–	–	–	–	Cc1cn(C)c(C)c1-c1ccnc(Nc2ccc(N3CCOCC3)cc2)n1 [Compound 48]
–	–	423	–	–	123.1 to 124.2	CCOC(=O)c1[nH]c(C)c(-c2ccnc(Nc3cccc(O)c3)n2)c1-c1ccccc1 [Compound 7]
1120	125	–	–	–	–	COc1cc(Nc2nccc(-c3c(C)c(C#N)n(C)c3C)n2)cc(OC)c1OC [Compound 53]
12	–	307	786	14	–	CCN(CC)CCNS(=O)(=O)c1ccc(Nc2nccc(-c3c(C)[nH]c(C#N)c3C)n2)cc1 [Compound 36]
–	–	278	712	–	202 to 205	CCOC(=O)c1[nH]c(C)c(-c2ccnc(Nc3ccc(O)c([N+](=O)[O-])c3)n2)c1-c1ccccc1 [Compound 11]
–	531	–	–	–	–	Cc1cn(C)c(C)c1-c1ccnc(Nc2ccc(N3CCOCC3)c(Cl)c2)n1 [Compound 49]
–	> 10000	–	–	–	–	Cc1cc(N2CCOCC2)ccc1Nc1nccc(-c2c(C)c[nH]c2C)n1 [Compound 50]
574	–	–	–	127	–	Cc1[nH]c(C#N)c(C)c1-c1ccnc(Nc2ccc(N3CCOCC3)cc2)n1 [Compound 24]
–	–	91	234	–	–	CC(=O)N1CCN(c2ccc(Nc3nccc(-c4c(C)c(C#N)n(C)c4C)n3)cn2)CC1 [Compound 39]
–	–	> 10000	≥ 10000	–	200 to 203	CCOC(=O)c1[nH]c(C)c(-c2ccnc(Nc3cccc(F)c3)n2)c1-c1ccccc1 [Compound 8]
–	–	–	–	45	196.6 to 198.1	Cc1[nH]cc(-c2ccccc2)c1-c1ccnc(Nc2ccc(F)cc2)n1 [Compound 16]
33	–	40	102	3270	88.3 to 92.6	Cc1[nH]c(CN(C)C)c(C)c1-c1ccnc(Nc2cccc([N+](=O)[O-])c2)n1 [Compound 17]
–	230	–	–	–	–	Cc1c[nH]c(C)c1-c1ccnc(Nc2ccc(N3CC(C)OC(C)C3)cc2)n1 (centres unmarked) [Compound 51]
